Experimental data as given in EP0097546A1, “Benzhydrylsulfinyl ethyl amines, process for their preparation and their use in therapy” (LABORATOIRE L. LAFON Société anonyme dite:, priority 1982, dated 1984).

Legend:
Type in all cases: in vivo
groupes de souris = test: Intergroup aggressiveness test; conditions: groups of mice, i.p., doses 16 mg/kg and 64 mg/kg
Description: (§1) On a résumé ci-après les résultats des essais neuro- pshychopharmacologiques qui ont été ertrepris avec le CRL 40883 (produit de l'exemple 1). Dans ces essais le CRL 40883 en solution dans de l'eau distillée à pH 5 a été administré par voie intra- péritonéale sous un volume de 20 ml/kg chez la souris mâle et sous un volume de 5 ml/kg chez le rat mâle.

[1] = test system: stéréotypies amphétaminiques; test: Amphetamine stereotypies; conditions: i.p.
Description: as §1

[2] = test system: hypothermies induites par la réserpine; test: Antagonism of reserpine-induced hypothermia; conditions: i.p.
Description: as §1

souris mâle = test: Toxicity, intraperitoneal route; conditions: male mouse, I.P. route
Description: as §1
• Chez la souris mâle la DL-30 par voie I.P. du CRL 40883 est de l'ordre de 250 mg/kg.

[3] = test system: hypothermies induites par l'oxotrémorine; test: Antagonism of oxotremorine-induced hypothermia; conditions: i.p.
Description: as §1

souris = test: Global behaviour and reactivities in the mouse; conditions: i.p.
Description: as §1
(§2) • Des lots de 6 animaux sont observés avant, puis 15 minutes, 30 minutes, 1 h , 2 h , 3 h et 24 h après l'administration de CRL 40 883.

[4] = test system: hypothermies induites par l'apomorphine; test: Antagonism of apomorphine-induced hypothermia; conditions: i.p.
Description: as §1

rat = test: Global behaviour and reactivities in the rat; conditions: i.p.
Description: as §1, §2

CNCC[S+]([O-])C(c1ccccc1)c1ccccc1 (centres unmarked) [CRL 40883, chlorhydratede N-[2-(benzhydrylsulfinyl)-éthyl]-méthylamine]
nombre de combats (groupes de souris): forte diminution du nombre de combats
stéréotypies amphétaminiques [1]: potentialisation des stéréotypies amphétaminiques
antagonisme des hypothermies induites par la réserpine [2]: antagonisme
DL-30 (souris mâle): ~250 mg/kg
antagonisme des hypothermies induites par l'oxotrémorine [3]: antagonisme
comportement et réactivités (souris; doses 64 mg/kg, 16 mg/kg, 4 mg/kg and 1 mg/kg, observed 15 min to 24 h): n'entraîne pas de modifications sensibles du comportement et des réactivités
sédation (souris; mainly at 128 mg/kg): sédation modérée
antagonisme des hypothermies induites par l'apomorphine [4]: antagonisme
réactivité au toucher (rat; 32 mg/kg, lasting 30 minutes): hyporéactivité au toucher
tonus musculaire (rat; 32 mg/kg, lasting 30 minutes): hypotonie musculaire
symptômes (rat; doses 8 mg/kg, 2 mg/kg and 0,5 mg/kg): pas de symptômes particuliers
